Reference: patent publication US20240343754A1, “7-SUBSTITUTED 7-DEAZAADENINE-CONTAINING 2',3'-CYCLIC DINUCLEOTIDES” (USTAV ORGANICKE CHEMIE A BIOCHEMIE AV CR, V. V. I., priority 2021, published 2024)
Where two headings read alike, the source gives them in different places.

What was measured:
wt hSTING = wt hSTING (Homo sapiens, UniProt Q86WV6); assay: Standard 293T reporter cell-based assay (IRF-3 dependent firefly luciferase reporter); settings: read-out: Standard assay EC50; 293T reporter cells expressing wt hSTING; 7 h incubation; mean of three independent experiments in triplicates, SD <50%
Sequence of wt hSTING (Q86WV6 whole entry H232R): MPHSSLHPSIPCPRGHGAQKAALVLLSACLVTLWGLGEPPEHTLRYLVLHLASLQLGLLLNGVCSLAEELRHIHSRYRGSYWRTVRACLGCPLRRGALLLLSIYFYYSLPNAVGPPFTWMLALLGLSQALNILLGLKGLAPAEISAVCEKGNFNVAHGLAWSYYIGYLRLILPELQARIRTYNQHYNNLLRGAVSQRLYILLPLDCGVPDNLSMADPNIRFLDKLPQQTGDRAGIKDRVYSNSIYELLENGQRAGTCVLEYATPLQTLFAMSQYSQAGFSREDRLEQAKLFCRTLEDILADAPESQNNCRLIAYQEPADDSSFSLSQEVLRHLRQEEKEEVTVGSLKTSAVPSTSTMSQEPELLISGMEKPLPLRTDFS
Procedure: Briefly, the day before testing cells were seeded onto 96-well white plates at density 250,000 cells per cm^2 in DMEM High glucose medium supplemented with 10% (v/v) heat inactivated fetal bovine albumin (FBS). The next day medium was removed, and cell were incubated for 7 h (37° C., 5% CO2) with serial dilution of compounds in medium. After incubation, Bright-Glo Luciferase Assay System reagent was added to cells and luminescence readout was performed on SPARK instrument (Tecan, Austria). EC50 values were determined using in software Prism (GraphPad, USA).

[1] = tested on: Peripheral blood mononuclear cells (PBMC); assay: PBMC assay: induction of cytokines INFα and INFγ; format: cell-based; settings: Homo sapiens, PBMCs, 16 h incubation, mean from three different PBMC donors
[2] = Cytotoxic effect on PBMCs (CellTiter-Glo Luminescent Cell Viability Assay); format: cell-based; settings: human, 16 h incubation, mean from three different PBMC donors
Procedure: Briefly, buffy coats were obtained from the Institute of Hematology and Blood Transfusion (Prague, Czech Republic). Informed written consent was signed by each volunteer. Isolation of PBMCs was performed on Ficoll density gradient centrifugation (Ficoll Paque Plus, GE Healthcare, USA) in SepMate tubes (SepMate PBMC Isolation Tubes, Stemcell Technologies, Canada). Obtained PBMCs were washed using PBS with 2 mM EDTA, and then seeded onto 96-well U-shape plates at density 500,000 cells per well in RPMI 1640 media with 10% (v/v) heat inactivated FBS. Serially diluted CDNs were added to cells and cells were incubated for 16 h (37° C., 5% CO2). After incubation, medium was collected to determine levels of INFα and INFγ using ProcartaPlex Assays and MAGPIX System (Merck, Germany) according to the manufacturer's instructions. Cytotoxic effect of CDNs on PBMCs was determined using CellTiter-Glo® Luminescent Cell Viability Assay (Promega Corporation, USA) according to manufacturer's instruction.

[3] = read-out: PBMC assay EC50 INF α
[4] = read-out: PBMC assay EC50 INF γ

EC50 (wt hSTING)	Structure (SMILES)	EC50 [1, 3]	EC50 [1, 4]	CC50 at 16 h [2]
2.95 µM	Nc1nc2c(ncn2[C@@H]2O[C@@H]3COP(=O)(O)O[C@H]4[C@@H](O)[C@H](n5cc(-c6ccc(-c7ccccc7)cc6)c6c(N)ncnc65)O[C@@H]4COP(=O)(O)O[C@@H]2[C@@H]3O)c(=O)[nH]1 [Compound 1f, 9-((5R,7R,8R,12aR,14R,15R,15aS,16R)-14-(5-([1,1′-biphenyl]-4-yl)-4-amino-7H-pyrrolo[2,3-d]pyrimidin-7-yl)-2,10,15,16-tetrahydroxy-2,10-dioxidooctahydro-12H-5,8-methanofuro[3,2-l][1,3,6,9,11]pentaoxa[2,10]diphosphacyclotetradecin-7-yl)-2-amino-1,9-dihydro-6H-purin-6-one]	7.4 µM	2 µM	> 200 µM
2.58 µM	Nc1nc2c(ncn2[C@@H]2O[C@@H]3COP(=O)(O)O[C@H]4[C@@H](O)[C@H](n5cc(-c6ccc(COc7cccc8ccccc78)cc6)c6c(N)ncnc65)O[C@@H]4COP(=O)(O)O[C@@H]2[C@@H]3O)c(=O)[nH]1 [Compound 1h, 2-amino-9-((5R,7R,8R,12aR,14R,15R,15aS,16R)-14-(4-amino-5-(4-((naphthalen-1-yloxy)methyl)phenyl)-7H-pyrrolo[2,3-d]pyrimidin-7-yl)-2,10,15,16-tetrahydroxy-2,10-dioxidooctahydro-12H-5,8-methanofuro[3,2-l][1,3,6,9,11]pentaoxa[2,10]diphosphacyclotetradecin-7-yl)-1,9-dihydro-6H-purin-6-one]	1.97 µM	1.08 µM	> 200 µM
